This is an account of results in article PMC6778101 (Nature Communications, 2019).

Holding throughout (type): cell-based, Escherichia coli
In test [1] the test system is E. coli K-12 BW25113 carrying ASKA plasmids. The experiment in a line: microbe, parasite or virus in culture. To be noted: for MIC: Escherichia coli; for MIC / MIC value of E. coli K-12 BW25113 carrying the empty plasmid of the ASKA library / MIC value of E. coli K-12 BW25113 carrying the pooled plasmids of the ASKA library: MS medium + 10 µg mL−1 CHL + 500 µM IPTG, 5 × 10^5 cells, 16–18 h, 37 °C. The source says: Bacterial gene amplification generates extensive genetic variation that can provide drug resistance[37],[38]. As gene amplification events tend to be genetically unstable and reduce bacterial fitness, they are transient in nature. Using the ASKA library, which comprises each E. coli ORF cloned into an expression vector[40], we have conducted a global survey to evaluate whether artificially amplified genes provide resistance to any of the 14 AMPs and 11 antibiotics tested. As chloramphenicol (CHL) was used as a selection marker for the ASKA plasmid, this antibiotic was not tested in this screen. E. coli K-12 BW25113 cells were transformed with the pooled plasmids of the ASKA library, and the genetically mixed populations were exposed to increasing levels of AMP or antibiotic stresses, respectively. In all cases, the employed AMP or antibiotic dosages were above the MIC of the wild type. For each drug, we identified the MIC provided in the pooled ASKA plasmid library, and compared it to the MIC of the wild-type strain carrying the empty ASKA plasmid.
The ASKA library (a complete set of E. coli K-12 ORF archive) includes every E. coli ORF cloned into an expression vector (pCA24N)[65]. Prior to screening, the ASKA plasmid collection was pooled and transformed into E. coli K-12 BW25113 strain[66]. The plasmid pool was created by pooling an equal aliquot of cells, each carrying different members of the ASKA library, followed by plasmid miniprep. Next, the plasmid pool was electroporated into E. coli K-12 BW25113 competent cells. […] For the MICs measurements 500 000 cells were inoculated in each well which represents ~100 times coverage of each library member. […] Prior to the measurements the cell population containing the pooled overexpression library or the control strain containing the empty vector were grown in three replicates in LB medium supplemented with 20 µg/mL CHL. As the culture reached high density (i.e., OD600 > 0.8), expression of the plasmid was induced by 50 µM IPTG for 1 h. Following induction, 5 × 10^5 bacterial cells were inoculated in three replicates into each well of the 96-well plate and incubated for 16–18 h at 37 °C. Following incubation the MIC values were determined by measuring optical densities in a plate reader (Biotek Synergy).

For test [2], the system named is E. coli K-12 BW25113. In words: microbe, parasite or virus in culture. The source says: Unless otherwise indicated, Minimal Salt (MS) medium was used in all experiments, including the laboratory evolution experiments. In line with previous, methodologically relevant laboratory evolution studies, the physical conditions (including the medium) were the same during the course of laboratory evolution and all forthcoming assays on the resulting resistant lines (e.g. MIC measurements). We previously optimized this medium for studying AMPs (1 g L^−1 (NH4)2SO4, 3 g L^−1 KH2PO4 and 7 g L^−1 K2HPO4 supplemented with 0.1 mM MgSO4, 0.54 µg mL^−1 FeCl3, 1 µg mL^−1 thiamine hydrochloride, 0.2% Casamino acids and 0.2% glucose)[19]. This medium is highly controlled and provides a reproducible environment for experimental evolution experiments. All components were obtained from Sigma-Aldrich.
MICs were determined using a standard serial broth dilution technique. Briefly, 11-step serial dilutions were prepared in 96-well microtiter plates with three replicates per strain and antimicrobial compound. Each experiment was repeated at least twice. 5 × 10^5 cells/mL were inoculated into each well, and the plates were incubated at 30 °C in case of E. coli K-12 BW25113, and its antibiotic and AMP-adapted lines, or 37 °C in case of the other bacterial species. […] Cell growth was monitored by measuring the optical density (OD600 value, Biotek Synergy 2 microplate reader was used for this purpose). […] Relative MIC was calculated as follows: MICrelative = MICevolved/MICcontrol.

Test [3] has as its system antibiotic- and AMP-adapted E. coli K-12 BW25113 lines. In words: High-throughput fitness measurement of adapted lines (area under growth curve, drug-free medium). To be noted: adapted line APC1. The source says:
We estimated fitness by measuring growth of these strains and the corresponding wild-type in antibiotic-free medium (“Methods”). […] As might be expected, fitness costs varied substantially across antibiotics and AMPs (Fig. 1b). […] This pattern is unlikely to reflect differences in the level of resistance between AMP and antibiotic strains, respectively. There is only a weak, marginally significant negative correlation between the level of resistance and fitness cost (Supplementary Fig. 1, Spearman’s rho = −0.24, P = 0.016 (N = 98)), and this correlation becomes non-significant after controlling for drug type (P = 0.6 and P = 0.39 for antibiotics (N = 60) and AMPs (N = 38) respectively, Spearman’s correlation).
Bacterial cell growth was assayed by continuously monitoring the optical density (OD600) of liquid cultures using 384-well microtiter plates containing MS medium, the same medium used during the laboratory evolution. Fitness was measured for a total of 60 antibiotic-adapted and the 38 AMP-adapted E. coli K-12 BW25113 lines (at least four lines per antibiotic or AMP). All measurements were performed twice (six technical replicates per experiment). Starter cultures were inoculated into 96-well plates containing MS medium and incubated for 20 h at 30 °C for E. coli K-12 BW25113 and its evolved lines. After this growth period, the OD600 of each culture was read and the starting cell number set to a final of 50,000 cells per well to a final volume of 60 µl. A total of 384-well plates were inoculated combining four different 96-well starter plates together: one plate having the unevolved wild-type control as a reference strain in all wells in order to estimate possible variation in growth within-plate measurement causing biases to the reading, and three plates containing the different set of antibiotic or AMP-adapted lines. Cell growth was monitored by measuring the optical density at 600 nm every 5 min (OD600 value, Biotek Synergy 2 microplate reader was used for this purpose). The integral data was calculated by the Biotek Gen5 Data Analysis Software between 1 and 24 h in case of E. coli K-12 BW25113 adapted lines. Because of possible influence of temperature equilibration in the first hour of measurement, this time period was excluded from the analysis.

The test system of test [4] is E. coli K-12 BW25113 bearing the metagenomic plasmid library. In words: Functional metagenomic screen of a soil library, gradient plate selection. To be noted: soil metagenomic library, 1.5–5 kb fragments, gradient plate, 30 °C, 24 h.
In test [5] the test system is E. coli K-12 BW25113 carrying single mutations. The experiment in a line: MIC change in single-mutation strains (basS L194R, mlaD a342del, waaY M1†). To be noted: mutations inserted individually into E. coli K-12 BW25113.
The mark [6] stands for this setting: BW25113, Replicate 1, read-out: MIC value of E. coli K-12 BW25113 carrying the empty plasmid of the ASKA library.
Setting [7] is: BW25113, Replicate 1, read-out: MIC value of E. coli K-12 BW25113 carrying the pooled plasmids of the ASKA library.
Setting [8] is: BW25113, Replicate 2, read-out: MIC value of E. coli K-12 BW25113 carrying the empty plasmid of the ASKA library.
Where [9] appears, read: BW25113, Replicate 2, read-out: MIC value of E. coli K-12 BW25113 carrying the pooled plasmids of the ASKA library.
Where [10] appears, read: BW25113, Replicate 3, read-out: MIC value of E. coli K-12 BW25113 carrying the empty plasmid of the ASKA library.
Where [11] appears, read: BW25113, Replicate 3, read-out: MIC value of E. coli K-12 BW25113 carrying the pooled plasmids of the ASKA library.
[12] abbreviates: Escherichia coli, BW25113, 24 h, read-out: MIC.
Where [13] appears, read: replicate 1 (first line of the sheet).

Read-outs that look alike come from different tables or passages of the source.

Consider `CC1(C)S[C@@H]2[C@H](NC(=O)[C@H](N)c3ccccc3)C(=O)N2[C@H]1C(=O)O` [APC, Ampicillin], for which the MIC in test [1] (setting [6]) came out at 4 µg/mL; in test [1] (setting [7]), 256 µg/mL; in test [1] (setting [8]), 4 µg/mL; in test [1] (setting [9]) it was 256 µg/mL; in test [1] (setting [10]), 4 µg/mL; in test [1] (setting [11]) it was 256 µg/mL. Besides, the MIC in test [2] (setting [12]) turned out to be 6.2 µg/mL. For the same compound, the “integral (measured integral data)” value is on record as 10905.8 in test [3] (setting [13]); 12217.4 in test [3] (replicate 2); 11200 in test [3] (replicate 3); 11338.5 in test [3] (replicate 4); 13182.1 in test [3] (replicate 5). For the same compound, the “normalized integral (integral normalized to wild-type)” value is 0.2843 in test [3] (setting [13]); 0.3185 in test [3] (replicate 2); 0.292 in test [3] (replicate 3); 0.2956 in test [3] (replicate 4); 0.3436 in test [3] (replicate 5).

With `O=C(N[C@H](CO)[C@H](O)c1ccc([N+](=O)[O-])cc1)C(Cl)Cl` [CHL, Chloramphenicol], in test [4], the “Number of resistant contig” value amounted to 7. The MIC in test [2] (setting [12]) turned out to be 6.9 µg/mL.

`NC[C@H]1O[C@H](O[C@H]2[C@H](O)[C@@H](O[C@H]3O[C@H](CO)[C@@H](O)[C@H](N)[C@H]3O)[C@H](N)C[C@@H]2N)[C@H](N)C[C@@H]1O` [TOB, Tobramycin]: the MIC in test [1] (setting [6]) was determined as 1.49 µg/mL; in test [1] (setting [7]), 2.15 µg/mL; in test [1] (setting [8]), 1.24 µg/mL; in test [1] (setting [9]), 2.58 µg/mL; in test [1] (setting [10]), 1.49 µg/mL; in test [1] (setting [11]), 2.58 µg/mL. Further, the MIC in test [2] (setting [12]) was found to be 3.4 µg/mL. Moreover, in test [4], the “Number of resistant contig” value came out at 13.

In the case of `COc1cc(Cc2cnc(N)nc2N)cc(OC)c1OC` [TRM, Trimethoprim], in test [1], the “increment in resistance level by the pooled ASKA library” value is listed as 32 fold. Moreover, the MIC in test [1] (setting [6]) was determined as 2 µg/mL; in test [1] (setting [7]), 128 µg/mL; in test [1] (setting [8]), 2 µg/mL; in test [1] (setting [9]), 64 µg/mL; in test [1] (setting [10]), 2 µg/mL; in test [1] (setting [11]), 64 µg/mL. The MIC in test [2] (Escherichia coli, BW25113, 24 h) turned out to be 5.2 µg/mL. Further, the “Number of resistant contig” value in test [4] was found to be 11.

For the compound “GIINTLQKYYRVRGGRAVLSLPKEEQIGKSTRGRKRRKK [HBD3, Human beta-defensin-3, clinically relevant antimicrobial peptide with human origin]”, in test [5], the “resistance conferred by single mutations basS L194R, mlaD a342del, waaY M1† (in words)” value is listed as “conferred resistance”. Besides, the “MIC value of E. coli K-12 BW25113 carrying the empty plasmid of the ASKA library” value in test [1] (Replicate 1) was found to be 195.36 µg/mL; in test [1] (Replicate 2), 195.36 µg/mL; in test [1] (Replicate 3), 281.31 µg/mL. For the same compound, the “MIC value of E. coli K-12 BW25113 carrying the pooled plasmids of the ASKA library” value in test [1] (Replicate 1) stood at 405.09 µg/mL; in test [1] (Replicate 2), 337.58 µg/mL; in test [1] (Replicate 3), 281.31 µg/mL. Moreover, in test [2] (starting wild-type strain of the evolution experiment, broth dilution, MS medium, 5 × 10^5 cells/mL, 30 °C, 24 h, MIC = OD600 < 0.05), the MIC was determined as 1500 µg/mL.
